One assay concerns HCC70 cells. Nature of the assay: HCC70 cell proliferation (CellTiter-Glo). Particulars: Homo sapiens, read-out: Inhibition of Proliferation of HCC70 Cells (IC50 in M). The class given is cell-based. On the procedure: HCC70 was the cell line used as a model of triple-negative breast cancer (TNBC). This cell line was obtained from ATCC and was initiated from a primary ductal carcinoma in 1992 (Catalog #CRL-2315; mammary gland primary ductal carcinoma). The HCC-70 tumor cell line was maintained in vitro as a monolayer culture in RPMI-1640 medium supplemented with 10% heat inactivated fetal bovine serum at 37° C. in an atmosphere of 5% CO2 in air.
Representative compounds were tested at different concentrations (from 4 μM to 126.4 pM; 0.5 log serial dilutions) for their ability to inhibit the proliferation of HCC70 cells. Cells were grown in ATCC-formulated RPMI-1640 Medium (ATCC 30-2001)+10% FBS. The cells were cultured at 37° C. in a humidified chamber in the presence of 5% CO2. Proliferation assays were conducted over a 72 hour time period.
(§1) Cells were cultured and maintained as described above, with cells always fed on the day prior to assay. Assays were run with a 2 hour compound exposure followed by a washout and then a 72 hour proliferation time or exposed to the test compounds for 72 hours with no washout of compound. DMSO was used as a control in all wells not receiving test compound and DMSO wells were used for plate normalization. Proliferation and survival of cells was quantified based on the amount of total ATP following cell lysis as determined by using a standard assay kit used according to manufacturer's instructions. Experiments were performed in the same media used by each cell type for growth and maintenance. Cells (5×10^4) were plated in 96 well plates for compound exposure. CellTiter-Glo® (Promega Corporation, Madison, Wis. USA) was used to assess the anti-proliferative effects of the compounds following manufacturer's directions and utilizing the reagents supplied with the CellTiter-Glo® kit.

The next assay concerns OVCAR-3 cells. In words: OVCAR-3 cell proliferation (CellTiter-Glo). Particulars: Homo sapiens, read-out: Inhibition of proliferation of OVCAR3 cells (IC50 in M). Type of assay: cell-based.
Description: OVCAR-3 was used as the cell line to model for ovarian cancer in vitro and in vivo. This cell line was obtained from ATCC (Catalog #HTB-161) and is an adenocarcinoma line from the malignant ascites of a patient with progressive adenocarcinoma of the ovary and embodies a preclinical model of high-grade, serous ovarian cancer (HGSOC). OVCAR-3 has been deemed an appropriate model system in which to study drug resistance in ovarian cancer, and the presence of hormone receptors should be useful for the evaluation of hormonal therapy. OVCAR-3 is resistant to clinically relevant concentrations of adriamycin, melphalan and cisplatin.
Compounds 1-5 were tested at different concentrations (from 4 μM to 126.4 pM; 0.5 log serial dilutions) for their ability to inhibit the proliferation of OVCAR-3 cells. Cells were grown in ATCC-formulated RPMI-1640 Medium (ATCC 30-2001)+10% FBS. The cells were cultured at 37° C. in a humidified chamber in the presence of 5% CO2. Proliferation assays were conducted over a 72 hour time period.
as §1

The target in the next assay is T1, CDK12 (Homo sapiens, UniProt Q9NYV4).
T1 construct: either as full-length or enzymatically active fragments; purchased ProQinase GmbH (Reaction Biology)
T1 sequence (Q9NYV4 whole entry, the tested form may be a part): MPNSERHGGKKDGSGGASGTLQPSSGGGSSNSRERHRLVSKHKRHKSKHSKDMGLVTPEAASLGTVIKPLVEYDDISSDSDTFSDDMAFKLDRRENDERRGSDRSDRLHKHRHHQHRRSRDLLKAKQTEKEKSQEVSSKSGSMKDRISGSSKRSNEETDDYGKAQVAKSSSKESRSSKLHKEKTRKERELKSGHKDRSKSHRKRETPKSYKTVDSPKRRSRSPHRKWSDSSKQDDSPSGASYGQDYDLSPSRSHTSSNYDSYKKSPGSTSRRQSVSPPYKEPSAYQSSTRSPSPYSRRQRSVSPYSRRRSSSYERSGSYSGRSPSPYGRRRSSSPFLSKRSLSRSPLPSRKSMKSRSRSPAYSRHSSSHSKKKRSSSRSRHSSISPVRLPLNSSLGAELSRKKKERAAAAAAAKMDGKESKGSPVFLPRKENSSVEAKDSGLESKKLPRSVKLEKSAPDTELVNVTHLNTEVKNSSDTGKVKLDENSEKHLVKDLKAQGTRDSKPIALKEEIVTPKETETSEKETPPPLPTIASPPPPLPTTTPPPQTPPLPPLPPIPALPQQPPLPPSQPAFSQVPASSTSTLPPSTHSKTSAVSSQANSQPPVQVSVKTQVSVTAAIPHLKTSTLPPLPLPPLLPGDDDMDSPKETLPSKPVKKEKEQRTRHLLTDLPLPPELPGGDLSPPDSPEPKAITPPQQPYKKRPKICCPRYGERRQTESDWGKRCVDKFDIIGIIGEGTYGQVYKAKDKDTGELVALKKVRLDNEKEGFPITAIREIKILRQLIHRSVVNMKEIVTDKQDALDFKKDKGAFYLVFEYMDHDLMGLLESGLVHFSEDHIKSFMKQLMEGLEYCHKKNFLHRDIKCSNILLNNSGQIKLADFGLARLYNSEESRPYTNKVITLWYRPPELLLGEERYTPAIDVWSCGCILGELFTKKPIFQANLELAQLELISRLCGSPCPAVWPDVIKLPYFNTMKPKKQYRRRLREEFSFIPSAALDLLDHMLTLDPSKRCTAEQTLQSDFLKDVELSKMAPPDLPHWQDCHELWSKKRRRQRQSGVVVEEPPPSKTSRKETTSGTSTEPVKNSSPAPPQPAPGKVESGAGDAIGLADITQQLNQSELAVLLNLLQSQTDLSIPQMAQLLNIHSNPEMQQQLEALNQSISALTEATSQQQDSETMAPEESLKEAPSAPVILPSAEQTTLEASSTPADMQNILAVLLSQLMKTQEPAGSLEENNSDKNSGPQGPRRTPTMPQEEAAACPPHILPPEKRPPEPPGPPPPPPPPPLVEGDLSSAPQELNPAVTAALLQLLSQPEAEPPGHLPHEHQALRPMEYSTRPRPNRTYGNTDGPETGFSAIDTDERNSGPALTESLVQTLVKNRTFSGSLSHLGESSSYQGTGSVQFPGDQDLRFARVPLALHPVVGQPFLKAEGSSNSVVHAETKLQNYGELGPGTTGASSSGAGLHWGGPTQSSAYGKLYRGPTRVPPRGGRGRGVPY
T1 sequence (O75909 whole entry partner, the tested form may be a part): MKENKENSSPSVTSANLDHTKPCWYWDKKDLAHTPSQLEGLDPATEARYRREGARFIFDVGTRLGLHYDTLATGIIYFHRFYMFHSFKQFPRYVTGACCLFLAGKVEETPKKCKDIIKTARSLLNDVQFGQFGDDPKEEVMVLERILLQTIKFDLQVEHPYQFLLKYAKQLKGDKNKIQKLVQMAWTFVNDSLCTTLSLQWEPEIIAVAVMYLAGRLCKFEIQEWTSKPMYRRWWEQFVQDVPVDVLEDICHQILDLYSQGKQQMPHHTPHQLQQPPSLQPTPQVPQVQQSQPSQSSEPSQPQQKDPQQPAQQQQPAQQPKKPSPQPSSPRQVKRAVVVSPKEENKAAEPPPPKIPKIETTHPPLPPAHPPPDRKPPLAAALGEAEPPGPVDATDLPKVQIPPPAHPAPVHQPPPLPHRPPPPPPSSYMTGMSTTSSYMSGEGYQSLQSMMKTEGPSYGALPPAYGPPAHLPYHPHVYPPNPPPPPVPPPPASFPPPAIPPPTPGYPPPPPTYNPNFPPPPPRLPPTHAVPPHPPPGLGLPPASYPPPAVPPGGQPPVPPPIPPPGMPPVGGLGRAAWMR
In words: Radiometric kinase assay (33PanQinase). Type of assay: biochemical. The conditions noted are these: read-out: Inhibition of CDK Activity (molar inhibition in a radiometric assay). The protocol: (§2) The compounds 1-5 (see Table 1) were assayed for kinase activity at ProQinase (ProQinase GmbH, Reaction Biology; Freiburg, Germany) using their commercially available radiometric kinase assay services. Briefly, the compounds were provided as solids and were dissolved to 1×10^−03 M/100% DMSO stock solutions on the day of assay. All protein kinases were provided by ProQinase and were expressed in Sf9 insect cells or in E. coli as recombinant GST-fusion proteins or His-tagged proteins, either as full-length or enzymatically active fragments. All kinases were produced from human cDNAs and purified by either GSH-affinity chromatography or immobilized metal. The purity of the protein kinases was examined by SDS-PAGE/Coomassie staining, the identity was checked by mass spectroscopy. A radiometric protein kinase assay (^33PanQinase® Activity Assay) was used for measuring the kinase activity of the protein kinase. All kinase assays were performed in 96-well FlashPlates™ from PerkinElmer (Boston, Mass., USA) in a 50 microliter reaction volume. The reaction cocktail was pipetted in four steps in the following order: 1) 25 microliter of assay buffer (standard buffer/[gamma-^33P]-ATP); 2) 10 microliter of ATP solution (in H2O); 3) 5 microliter of test compound (in 10% DMSO); 4) 10 microliter of enzyme/substrate mixture.
(§3) As a parameter for assay quality, the Z′-factor (Zhang et al., J. Biomol. Screen. 2: 67-73, 1999) for the low and high controls of each assay plate (n=8) was used. ProQinase's criterion for repetition of an assay plate is a Z′-factor below 0.4.

The target in the next assay is T2, CDK2 (Homo sapiens, UniProt P24941).
T2 construct: either as full-length or enzymatically active fragments; purchased ProQinase GmbH (Reaction Biology); host or cells: Sf9 insect cells or E. coli
In words: Radiometric kinase assay (33PanQinase). Type of assay: biochemical. The conditions noted are these: read-out: Inhibition of CDK Activity (molar inhibition in a radiometric assay). On the procedure:
as §2, §3

In another assay the target is T3, CDK7 (Homo sapiens, UniProt P50613).
T3 construct: either as full-length or enzymatically active fragments; purchased ProQinase GmbH (Reaction Biology); host or cells: Sf9 insect cells or E. coli
Nature of the assay: Radiometric kinase assay (33PanQinase). Type of assay: biochemical. Particulars: read-out: Inhibition of CDK Activity (molar inhibition in a radiometric assay). On the procedure:
as §2, §3

The next assay deals with T4, CDK13 (Homo sapiens, UniProt Q14004).
T4 construct: either as full-length or enzymatically active fragments; purchased ProQinase GmbH (Reaction Biology)
T4 sequence (Q14004 whole entry, the tested form may be a part): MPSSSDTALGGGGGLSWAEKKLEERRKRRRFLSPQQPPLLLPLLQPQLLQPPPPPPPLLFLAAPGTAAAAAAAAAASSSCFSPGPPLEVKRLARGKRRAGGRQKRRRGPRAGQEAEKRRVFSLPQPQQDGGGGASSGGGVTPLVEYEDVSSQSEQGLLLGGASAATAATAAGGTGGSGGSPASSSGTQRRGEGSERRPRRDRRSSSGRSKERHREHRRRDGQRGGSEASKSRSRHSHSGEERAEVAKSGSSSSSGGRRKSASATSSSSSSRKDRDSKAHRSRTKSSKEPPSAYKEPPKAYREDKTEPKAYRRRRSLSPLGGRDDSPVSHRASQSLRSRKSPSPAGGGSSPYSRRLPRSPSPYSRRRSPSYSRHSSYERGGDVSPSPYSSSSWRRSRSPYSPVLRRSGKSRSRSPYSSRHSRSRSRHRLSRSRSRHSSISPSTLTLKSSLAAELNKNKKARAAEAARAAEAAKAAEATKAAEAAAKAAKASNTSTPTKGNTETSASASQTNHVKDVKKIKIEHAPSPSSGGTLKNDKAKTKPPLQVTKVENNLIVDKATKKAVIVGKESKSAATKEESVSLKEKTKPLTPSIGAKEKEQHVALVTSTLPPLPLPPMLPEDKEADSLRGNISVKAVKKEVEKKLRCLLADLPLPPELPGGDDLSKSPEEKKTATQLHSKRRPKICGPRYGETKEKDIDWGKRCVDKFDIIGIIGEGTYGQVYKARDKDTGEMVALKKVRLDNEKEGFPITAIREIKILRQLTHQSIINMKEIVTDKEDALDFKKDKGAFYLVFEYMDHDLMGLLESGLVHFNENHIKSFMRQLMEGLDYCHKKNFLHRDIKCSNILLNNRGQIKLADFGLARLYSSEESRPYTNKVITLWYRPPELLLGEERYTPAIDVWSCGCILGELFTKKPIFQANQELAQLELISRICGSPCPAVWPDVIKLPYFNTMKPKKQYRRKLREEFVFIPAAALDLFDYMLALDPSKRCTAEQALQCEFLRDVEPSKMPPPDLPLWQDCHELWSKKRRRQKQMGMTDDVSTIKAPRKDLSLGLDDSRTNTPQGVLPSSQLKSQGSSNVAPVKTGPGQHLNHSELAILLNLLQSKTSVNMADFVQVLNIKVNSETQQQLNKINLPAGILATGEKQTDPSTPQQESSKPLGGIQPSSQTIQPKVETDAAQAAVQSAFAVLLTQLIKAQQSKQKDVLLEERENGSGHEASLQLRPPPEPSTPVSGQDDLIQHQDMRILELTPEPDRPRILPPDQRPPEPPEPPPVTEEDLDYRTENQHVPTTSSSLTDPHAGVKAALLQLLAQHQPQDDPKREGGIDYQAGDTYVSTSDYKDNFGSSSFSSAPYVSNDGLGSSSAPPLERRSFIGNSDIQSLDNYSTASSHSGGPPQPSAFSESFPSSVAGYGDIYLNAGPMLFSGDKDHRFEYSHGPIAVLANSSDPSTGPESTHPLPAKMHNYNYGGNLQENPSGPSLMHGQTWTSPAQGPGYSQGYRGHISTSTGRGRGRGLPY
T4 sequence (O75909 whole entry partner, the tested form may be a part): as the sequence (O75909 whole entry partner, the tested form may be a part) above
In words: Radiometric kinase assay (33PanQinase). The class given is biochemical. Particulars: read-out: Inhibition of CDK Activity (molar inhibition in a radiometric assay). The protocol:
as §2, §3

The next assay deals with T5, CDK9 (Homo sapiens, UniProt P50750).
T5 construct: either as full-length or enzymatically active fragments; purchased ProQinase GmbH (Reaction Biology); host or cells: Sf9 insect cells or E. coli
T5 sequence (P50750 whole entry, the tested form may be a part): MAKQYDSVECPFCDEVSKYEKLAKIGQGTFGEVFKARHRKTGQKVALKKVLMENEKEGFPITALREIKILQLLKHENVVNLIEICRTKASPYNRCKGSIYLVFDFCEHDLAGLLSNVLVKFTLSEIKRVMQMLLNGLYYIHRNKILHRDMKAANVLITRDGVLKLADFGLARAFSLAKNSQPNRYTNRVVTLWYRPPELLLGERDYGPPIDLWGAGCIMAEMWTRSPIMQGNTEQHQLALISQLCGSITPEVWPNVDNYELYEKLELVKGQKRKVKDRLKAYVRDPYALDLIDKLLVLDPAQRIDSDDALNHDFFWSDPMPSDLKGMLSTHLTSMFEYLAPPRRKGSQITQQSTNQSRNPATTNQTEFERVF
T5 sequence (O60563 whole entry partner, the tested form may be a part): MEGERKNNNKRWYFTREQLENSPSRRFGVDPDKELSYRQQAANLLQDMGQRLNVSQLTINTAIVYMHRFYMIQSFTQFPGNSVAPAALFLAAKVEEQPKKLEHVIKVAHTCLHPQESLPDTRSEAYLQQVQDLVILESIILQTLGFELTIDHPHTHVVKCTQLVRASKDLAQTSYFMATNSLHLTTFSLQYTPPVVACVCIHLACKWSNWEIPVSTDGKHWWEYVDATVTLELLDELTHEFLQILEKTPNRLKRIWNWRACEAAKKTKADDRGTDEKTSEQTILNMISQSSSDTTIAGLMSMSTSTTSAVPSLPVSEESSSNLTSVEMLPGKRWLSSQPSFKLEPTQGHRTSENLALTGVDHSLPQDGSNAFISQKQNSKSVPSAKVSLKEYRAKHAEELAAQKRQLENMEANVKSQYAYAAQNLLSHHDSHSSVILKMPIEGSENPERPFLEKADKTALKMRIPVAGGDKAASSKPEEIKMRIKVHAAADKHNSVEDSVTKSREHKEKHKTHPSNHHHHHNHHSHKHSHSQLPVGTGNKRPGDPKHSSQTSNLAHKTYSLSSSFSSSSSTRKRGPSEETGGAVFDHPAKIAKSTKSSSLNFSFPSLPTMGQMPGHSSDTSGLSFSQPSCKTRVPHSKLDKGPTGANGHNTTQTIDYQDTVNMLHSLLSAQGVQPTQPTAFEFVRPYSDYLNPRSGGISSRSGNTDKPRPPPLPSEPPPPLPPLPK
In words: Radiometric kinase assay (33PanQinase). Type of assay: biochemical. Particulars: read-out: Inhibition of CDK Activity (molar inhibition in a radiometric assay). The protocol:
as §2, §3

Assay [1] relates to RNA polymerase II. Nature of the assay: Phosphorylation of RNA polymerase II (pS2/S2) in HCC70 xenograft. Type of assay: in vivo, CB-17 SCID mice. Particulars: intravenous. The protocol:
The ability of compound 4 and compound 5 to inhibit phosphorylation of RNA polymerase II at the S2 unit was analyzed in a mouse xenograft model of triple-negative breast cancer. CB-17 SCID mice were inoculated with the HCC70 cells as the in vivo model for triple negative breast cancer. Each mouse was inoculated subcutaneously on the right flank with HCC70 tumor cells (5×106) in 0.1 mL of RPMI-1640 Medium and Matrigel mixture (1:1 ratio) for tumor development. The treatment started when the mean tumor size reached approximately 100-150 mm^3. Mice were treated intravenously with vehicle only, 20 mg/kg of compound 4, 25 mg/kg of compound 4, 10 mg/kg of compound 5, or 25 mg/kg of compound 5 for 2 hours. Measurements were taken at 0.5 hours, 6 hours and 24 hours after the dose. The amount of phosphorylated RNA polymerase II and the total amount of RNA polymerase II was analyzed. The values were normalized by taking the ratio of the phosphorylated RNA polymerase II to the total RNA polymerase II (pS2/S2).

The test system of assay [2] is RNA polymerase II. Nature of the assay: Inhibition of phosphorylation of RNA polymerase II in NCI-H82 cells. Particulars: Homo sapiens, 2 hours, phosphorylated/total RNA polymerase II. Type of assay: cell-based. On the procedure: CDK12 and CDK13 phosphorylate RNA polymerase II. The ability of compound 1 to inhibit phosphorylation of RNA polymerase II was analyzed in NCI-H82 cells. 200,000 cells were plated in each well of a 96 well MSD plate. Cells were treated with compound 1, THZ531 (a positive control), or E9 at concentrations between 4 μM to 126.4 pM (0.5 log serial dilutions) for 2 hours. THZ531 and E9 are further discussed in Gao et al, Cell Chemical Biology 2017. The amount of phosphorylated RNA polymerase II and the total amount of RNA polymerase II was analyzed using antibodies. The values were normalized by taking the ratio of the phosphorylated RNA polymerase II to the total RNA polymerase II. As depicted in FIG. 3A (THZ531), FIG. 3B (Compound 1), and Table 6, increasing the concentration of compound 1 results in a dose-specific increase in the inhibition of phosphorylation of RNA polymerase II.

The mark [3] stands for this setting: HCC70 (no washout), exposed for 72 hours.
The mark [4] stands for this setting: HCC70 (w/washout), 2 hour exposure, washout, 72 hour proliferation.
The mark [5] stands for this setting: OVCAR-3 (no washout), exposed for 72 hours.
[6] abbreviates: OVCAR-3 (w/washout), 2 hour exposure, washout, 72 hour proliferation.

Each structure is given as a SMILES string. Read-outs that look alike come from different tables or passages of the source.

Turning to `C=CC(=O)N(C)c1ccc(C(=O)N2CC[C@@H](Nc3ncc(Cl)c(OC)n3)C2)cc1` [Compound 2, (R)-N-(4-(3-((5-chloro-4-methoxypyrimidin-2-yl)amino)pyrrolidine-1-carbonyl)phenyl)-N-methylacrylamide], the IC50 with HCC70 cells (setting [3]) stood at 0.0113 µM; with HCC70 cells (setting [4]), 0.038 µM; in the assay on OVCAR-3 cells (setting [5]), 0.00763 µM; at CDK12 it was 0.0544 µM; on CDK2, 11.3 µM; on CDK7 it was 0.518 µM. For the same molecule, the IC50 on CDK13 came out at 0.324 µM; at CDK9 it was 1.32 µM.

For the molecule `C=CC(=O)Nc1ccc(C(=O)N2CC[C@@H](Nc3ncc(Cl)cn3)C2)cc1` [Compound 3, (R)-N-(4-(3-((5-chloropyrimidin-2-yl)amino)pyrrolidine-1-carbonyl)phenyl)acrylamide], the IC50 in the assay with HCC70 cells (setting [3]) came to 0.0101 µM; in the assay with HCC70 cells (setting [4]) it was 0.11 µM; in the assay with OVCAR-3 cells (setting [5]), 0.00745 µM; in the assay on OVCAR-3 cells (setting [6]) it was 0.0337 µM; at CDK12, 0.0967 µM; at CDK2 it was 7.93 µM. Besides, the IC50 on CDK7 turned out to be 2.79 µM; at CDK13 it was 0.379 µM; at CDK9 it was 1.17 µM.

For `C#Cc1cnc(N[C@@H]2CCN(C(=O)c3ccc(NC(=O)C=C)cc3)C2)nc1` [Compound 5, (R)-N-(4-(3-((5-ethynylpyrimidin-2-yl)amino)pyrrolidine-1-carbonyl)phenyl)acrylamide], in the assay on RNA polymerase II [1] (all time points (0.5, 6, 24 hours)), the “decrease in the pS2/S2 ratio, 25 mg/kg versus 10 mg/kg” value is given as “greater decrease”. In the assay with RNA polymerase II [1] (compound 4 20 or 25 mg/kg, compound 5 10 or 25 mg/kg, 0.5, 6 and 24 hours after the dose), the “pS2/S2 compared to treatment with the vehicle alone” value was “reduced the pS2/S2 at all time points”. Moreover, the IC50 with HCC70 cells (setting [3]) was found to be 0.0193 µM; in the assay on HCC70 cells (setting [4]) it was 0.0821 µM; with OVCAR-3 cells (setting [5]), 0.0101 µM; in the assay on OVCAR-3 cells (setting [6]), 0.103 µM; on CDK12, 0.0593 µM; at CDK2 it was 3.37 µM. For the same molecule, the IC50 at CDK7 is 3.77 µM; on CDK13, 0.104 µM; at CDK9, 1.37 µM.

In the assay on RNA polymerase II [2], `CN(C)C/C=C/C(=O)Nc1ccc(C(=O)N2CCC[C@@H](Nc3ncc(Cl)c(-c4c[nH]c5ccccc45)n3)C2)cc1` [THZ531, reference compound] came in with an IC50 of 0.312 µM.
